Tests used:
hERG (KCNH2) [1] = molecular target: T1, hERG (KCNH2) (Homo sapiens, UniProt Q12809); experiment: Inhibition of human ERG at 10 uM relative to control
[2] = Metabolic stability in mouse liver microsomes assessed as intrinsic clearance; assay type: ADME, Microsome; conditions: read-out: CLH
[3] = Metabolic stability in human liver microsomes assessed as intrinsic clearance; assay type: ADME, Microsome; conditions: read-out: CLH
[4] = molecular target: T2, Indoleamine 2,3-dioxygenase 1 (Homo sapiens, UniProt P14902); experiment: Inhibition of IDO1 in human SKOV3 cells; assay type: cell-based, SK-OV-3
Target sequence in this assay (P14902 whole entry): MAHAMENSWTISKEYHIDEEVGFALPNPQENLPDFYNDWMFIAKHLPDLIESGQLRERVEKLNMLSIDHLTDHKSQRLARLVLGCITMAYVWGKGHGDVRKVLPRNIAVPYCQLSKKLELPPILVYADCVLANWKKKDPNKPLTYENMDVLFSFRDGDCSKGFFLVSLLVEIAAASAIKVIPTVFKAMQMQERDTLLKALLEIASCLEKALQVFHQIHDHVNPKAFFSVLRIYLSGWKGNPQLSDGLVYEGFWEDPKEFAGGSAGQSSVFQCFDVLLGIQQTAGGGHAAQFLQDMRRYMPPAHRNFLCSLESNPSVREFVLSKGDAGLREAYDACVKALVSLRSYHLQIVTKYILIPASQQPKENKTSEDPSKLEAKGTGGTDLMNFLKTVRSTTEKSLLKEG

[5] = molecular target: Tryptophan 2,3-dioxygenase (Homo sapiens, UniProt P48775); experiment: Inhibition of TDO in HEK cells; assay type: cell-based
Chain of Tryptophan 2,3-dioxygenase (P48775 whole entry): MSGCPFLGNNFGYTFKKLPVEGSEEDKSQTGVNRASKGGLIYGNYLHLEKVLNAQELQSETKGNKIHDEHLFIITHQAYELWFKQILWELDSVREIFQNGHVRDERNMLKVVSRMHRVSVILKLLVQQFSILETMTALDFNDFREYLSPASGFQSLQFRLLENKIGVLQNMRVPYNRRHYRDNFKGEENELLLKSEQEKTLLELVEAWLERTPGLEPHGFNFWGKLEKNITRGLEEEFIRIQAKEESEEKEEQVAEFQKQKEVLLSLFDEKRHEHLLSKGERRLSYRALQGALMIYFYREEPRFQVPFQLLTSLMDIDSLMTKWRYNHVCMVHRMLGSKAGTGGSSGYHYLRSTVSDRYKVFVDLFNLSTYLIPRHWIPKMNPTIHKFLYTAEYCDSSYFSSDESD

[6] = Half life in mouse at 10 mg/kg, po; assay type: ADME, organism-based; conditions: in vivo
[7] = AUC(0 to 8 hrs) in mouse at 10 mg/kg, po; assay type: ADME, organism-based; set-up: route oral, time 8 hrs, dose 10 mg/kg; conditions: in vivo
[8] = Cmax in mouse at 10 mg/kg, po; assay type: ADME, organism-based; set-up: route oral, dose 10 mg/kg; conditions: in vivo
hERG (KCNH2) [9] = molecular target: T1, hERG (KCNH2); experiment: Inhibition of human ERG assessed as reduction in channel tail current at 10 uM by patch clamp assay relative to control
Cytochrome P450 2C9 = Cytochrome P450 2C9 (Homo sapiens, UniProt P11712); experiment: Inhibition of CYP2C9 (unknown origin); assay type: ADME
Chain of Cytochrome P450 2C9 (P11712 whole entry): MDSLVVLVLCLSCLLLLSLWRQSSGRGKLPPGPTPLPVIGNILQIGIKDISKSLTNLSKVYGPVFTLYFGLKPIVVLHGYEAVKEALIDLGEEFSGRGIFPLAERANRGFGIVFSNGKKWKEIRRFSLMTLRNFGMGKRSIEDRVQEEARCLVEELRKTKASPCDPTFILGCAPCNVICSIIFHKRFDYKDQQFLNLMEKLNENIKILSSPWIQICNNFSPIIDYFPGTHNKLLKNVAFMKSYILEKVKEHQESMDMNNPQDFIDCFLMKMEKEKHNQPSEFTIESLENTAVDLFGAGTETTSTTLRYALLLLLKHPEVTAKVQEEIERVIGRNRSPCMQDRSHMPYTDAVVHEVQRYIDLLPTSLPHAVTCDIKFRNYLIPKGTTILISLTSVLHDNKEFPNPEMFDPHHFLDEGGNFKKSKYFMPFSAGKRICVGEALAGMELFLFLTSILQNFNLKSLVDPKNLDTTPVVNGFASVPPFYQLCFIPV

Cytochrome P450 2C8 = molecular target: T3, Cytochrome P450 2C8 (Homo sapiens, UniProt P10632); experiment: Inhibition of CYP2C8 (unknown origin); assay type: ADME
T3 sequence (P10632 whole entry): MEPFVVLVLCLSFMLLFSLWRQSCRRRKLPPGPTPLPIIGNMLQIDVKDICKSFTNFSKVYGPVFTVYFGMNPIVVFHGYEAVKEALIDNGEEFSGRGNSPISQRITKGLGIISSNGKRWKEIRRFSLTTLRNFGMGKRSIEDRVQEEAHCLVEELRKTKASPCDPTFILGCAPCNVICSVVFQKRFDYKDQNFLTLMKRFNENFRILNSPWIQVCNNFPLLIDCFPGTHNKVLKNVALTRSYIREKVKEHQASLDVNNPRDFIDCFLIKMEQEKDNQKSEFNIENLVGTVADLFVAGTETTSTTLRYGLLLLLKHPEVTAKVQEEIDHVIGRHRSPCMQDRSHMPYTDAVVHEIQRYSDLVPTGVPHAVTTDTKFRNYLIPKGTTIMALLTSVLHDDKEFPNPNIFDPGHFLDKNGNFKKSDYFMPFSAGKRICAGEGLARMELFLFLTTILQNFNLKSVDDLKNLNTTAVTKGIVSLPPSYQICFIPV

Cytochrome P450 2D6 = Cytochrome P450 2D6 (Homo sapiens, UniProt P10635); experiment: Inhibition of CYP2D6 (unknown origin); assay type: ADME
Chain of Cytochrome P450 2D6 (P10635 whole entry): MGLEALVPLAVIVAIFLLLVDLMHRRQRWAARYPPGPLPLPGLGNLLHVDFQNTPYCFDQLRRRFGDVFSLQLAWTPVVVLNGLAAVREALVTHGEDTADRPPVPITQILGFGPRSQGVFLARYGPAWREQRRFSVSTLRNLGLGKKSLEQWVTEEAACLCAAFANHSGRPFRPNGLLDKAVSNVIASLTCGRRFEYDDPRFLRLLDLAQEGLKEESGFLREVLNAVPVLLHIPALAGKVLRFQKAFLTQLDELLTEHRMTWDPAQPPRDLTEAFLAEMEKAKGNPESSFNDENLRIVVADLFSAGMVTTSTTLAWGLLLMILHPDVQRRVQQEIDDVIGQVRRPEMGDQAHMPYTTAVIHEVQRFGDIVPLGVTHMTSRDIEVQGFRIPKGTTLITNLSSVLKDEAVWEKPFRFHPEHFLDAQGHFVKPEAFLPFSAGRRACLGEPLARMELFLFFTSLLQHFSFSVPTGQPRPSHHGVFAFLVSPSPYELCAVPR

[10] = Plasma protein binding in mouse; assay type: ADME, cell-free; conditions: read-out: PPB (converted)
[11] = Plasma protein binding in human; assay type: ADME, cell-free; conditions: read-out: PPB (converted)
[12] = molecular target: T2, Indoleamine 2,3-dioxygenase 1; experiment: Binding affinity to IDO1 (unknown origin) assessed as change in melting temperature at 5 uM by thermal shift assay
Target sequence in this assay (P14902 whole entry, looked up): as the sequence (P14902 whole entry) above

[13] = molecular target: T2, Indoleamine 2,3-dioxygenase 1; experiment: Inhibition of IDO1 (unknown origin) by enzymatic assay
Target sequence in this assay (P14902 whole entry): as above

[14] = molecular target: T2, Indoleamine 2,3-dioxygenase 1; experiment: Inhibition of IDO1 in human whole blood; assay type: tissue-based
Target sequence in this assay (P14902 whole entry): as above

T1 sequence (Q12809 whole entry): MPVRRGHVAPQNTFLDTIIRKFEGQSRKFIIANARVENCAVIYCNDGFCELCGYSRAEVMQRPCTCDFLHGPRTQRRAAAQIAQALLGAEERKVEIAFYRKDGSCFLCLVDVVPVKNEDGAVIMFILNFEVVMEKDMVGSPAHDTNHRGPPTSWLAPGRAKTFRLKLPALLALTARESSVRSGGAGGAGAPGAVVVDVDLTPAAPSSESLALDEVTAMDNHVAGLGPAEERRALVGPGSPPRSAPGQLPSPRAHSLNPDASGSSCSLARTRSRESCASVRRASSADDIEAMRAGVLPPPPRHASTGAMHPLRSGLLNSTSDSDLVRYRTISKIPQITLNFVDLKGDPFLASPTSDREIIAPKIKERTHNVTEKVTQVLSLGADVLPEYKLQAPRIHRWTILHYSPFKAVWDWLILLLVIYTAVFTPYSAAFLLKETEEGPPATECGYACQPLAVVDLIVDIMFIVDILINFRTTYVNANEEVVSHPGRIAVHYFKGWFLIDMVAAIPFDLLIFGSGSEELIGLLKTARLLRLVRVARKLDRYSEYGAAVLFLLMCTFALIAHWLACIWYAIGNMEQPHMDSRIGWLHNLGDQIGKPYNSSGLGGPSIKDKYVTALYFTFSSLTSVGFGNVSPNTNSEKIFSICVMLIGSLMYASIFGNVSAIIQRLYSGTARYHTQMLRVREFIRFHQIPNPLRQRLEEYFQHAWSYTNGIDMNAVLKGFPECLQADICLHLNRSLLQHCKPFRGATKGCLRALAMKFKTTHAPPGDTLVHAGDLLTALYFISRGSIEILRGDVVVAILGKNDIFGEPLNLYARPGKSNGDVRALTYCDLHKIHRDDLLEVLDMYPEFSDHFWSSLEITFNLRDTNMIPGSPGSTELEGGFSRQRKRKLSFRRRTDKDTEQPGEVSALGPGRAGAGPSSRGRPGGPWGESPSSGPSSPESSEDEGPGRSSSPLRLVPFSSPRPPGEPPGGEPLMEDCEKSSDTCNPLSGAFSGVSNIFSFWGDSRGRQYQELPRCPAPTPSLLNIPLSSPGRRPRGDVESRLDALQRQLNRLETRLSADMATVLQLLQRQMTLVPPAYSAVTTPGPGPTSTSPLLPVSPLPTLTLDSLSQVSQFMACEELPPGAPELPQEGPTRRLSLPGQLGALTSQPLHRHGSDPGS

microsomal CLint [2] [µL/min/mg] | microsomal CLint [3] [µL/min/mg] | IC50 [4] [µM] | IC50 [5] [µM] | SMILES | inhibition at 10 µM (hERG (KCNH2) [1]) [%] | further results
52 | 11.6 | 0.009 | 6.3 | O=C(Nc1ccc(Cl)cc1)C(=O)N1CCC(c2ccnc3ccc(F)cc23)C(F)(F)C1 (racemic) | 15 | –
97 | 9 | – | 6.9 | O=C(Nc1ccc(Cl)cc1)C(=O)N1CCC(c2ccnc3ccc(F)cc23)CC1 | 64 | half-life [6]: 1.8 h; AUC(0-t) at 8 h [7]: 19.3 µM·h; Cmax [8]: 5.1 µM; inhibition at 10 µM (hERG (KCNH2) [9]): 70%; IC50 (Cytochrome P450 2C9): 6.1 µM; IC50 (Cytochrome P450 2C8): 4.7 µM; IC50 (Cytochrome P450 2D6): > 10 µM; fraction unbound [10]: 0.011; fraction unbound [11]: 0.003; ΔTm [12]: 14 °C
36 | 3.5 | 0.301 | 22 | O=C(Nc1ccc(Cl)cn1)C(=O)N1CCC(c2ccnc(C(F)(F)F)c2Cl)CC1 | – | –
– | – | 0.7 | 37 | O=C(Nc1ccc(Cl)cc1)C(=O)N1CCCC2(CC1)COc1cc(C(F)(F)F)ccc12 (centres undefined) | – | –
– | – | 0.34 | – | CS(=O)(=O)NCCCNC(=O)/C(=N/O)Nc1ccc(F)c(Br)c1 | – | IC50 [13]: 5 µM
63 | 6 | 0.073 | 6.4 | O=C(Nc1ccc(Cl)cn1)C(=O)N1CCC2(CC1)COc1cc(C(F)(F)F)ccc12 | – | –
– | – | 0.118 | 6.1 | N#Cc1ccc2nccc(C3CCN(C(=O)C(=O)Nc4ccc(Cl)cc4)CC3)c2c1 | – | –
112 | 23 | 0.07 | 5.9 | O=C(Nc1ccc(Cl)cn1)C(=O)N1CCC(c2ccnc3ccc(F)cc23)CC1 | – | –
72 | 11 | 0.019 | 2.5 | O=C(Nc1ccc(Cl)cc1)C(=O)N1CCC(c2ccnc3ccc(Cl)cc23)CC1 | – | –
386 | 21.3 | – | – | C[C@@H](C(=O)Nc1ccc(Cl)cc1)[C@H]1CC[C@@H](c2ccnc3ccc(F)cc32)CC1 | – | AUC(0-t) at 8 h [7]: 9.3 µM·h
18 | 5 | 0.05 | 15.3 | O=C(Nc1ccc(Cl)cc1)C(=O)N1CC[C@@H](c2ccnc3ccc(F)cc23)[C@H](O)C1 (stereo in doubt) | 10 | –
– | – | 0.49 | – | O=C(Nc1ccc(Cl)cn1)C(=O)N1CCC2(CC1)COc1ccccc12 | – | –
254 | 98 | 0.005 | 16 | O=C(Nc1ccc(Cl)cc1F)C(=O)N1CCC=C(c2ccnc3ccc(F)cc23)CC1 | – | –
202 | 108 | 0.008 | 5.9 | O=C(Nc1ccc(Cl)cc1F)C(=O)N1CCCC(c2ccnc3ccc(F)cc23)CC1 (racemic) | 66 | –
– | – | 1.2 | – | NS(=O)(=O)NCCCNC(=O)/C(=N/O)Nc1ccc(F)c(Cl)c1 | – | IC50 [13]: 10.3 µM
28 | 11 | 0.036 | 5.5 | N#Cc1ccc(NC(=O)C(=O)N2CCC(c3ccnc4ccc(F)cc34)CC2)cc1 | 61 | –

microsomal CLint [2] [µL/min/mg] | microsomal CLint [3] [µL/min/mg] | IC50 [4] [µM] | IC50 [5] [µM] | SMILES | inhibition at 10 µM (hERG (KCNH2) [1]) [%] | further results
16 | 5.5 | 0.09 | 9.5 | O=C(Nc1ccc(C(F)(F)F)cc1)C(=O)N1CCC(c2ccnc3ccc(F)cc23)CC1 | 77 | –
76 | 17 | 0.021 | 5.8 | O=C(Nc1ccc(C(F)F)cc1)C(=O)N1CCC(c2ccnc3ccc(F)cc23)CC1 | – | –
– | – | 1.8 | – | O=C(Nc1ccc(F)c(Cl)c1)C(=O)N1CCC(c2ccccc2)CC1 | – | IC50 [13]: > 60 µM; ΔTm [12]: 1 °C
55 | 26 | 0.019 | – | O=C(Nc1ccc(Cl)cc1)C(=O)N1CCC(c2ccnc3cc(F)ccc23)CC1 | 85 | –
– | – | 3 | 37 | O=C(Nc1ccc(Cl)cc1)C(=O)N1CC[C@@H](c2ccnc3ccc(F)cc23)[C@@H](O)C1 (stereo in doubt) | – | –
– | – | 0.11 | 17.2 | O=C(Nc1ccc(Cl)cc1)C(=O)N1CC[C@H](c2ccnc3ccc(F)cc23)[C@H](O)C1 (stereo in doubt) | – | –
17 | 4 | 0.0061 | 14 | O=C(Nc1ccc(Cl)cc1)C(=O)N1CC[C@H](c2ccnc3ccc(F)cc23)[C@@H](O)C1 (stereo in doubt) | 18 | half-life [6]: 1.4 h; AUC(0-t) at 8 h [7]: 27.1 µM·h; Cmax [8]: 10 µM; inhibition at 10 µM (hERG (KCNH2) [9]): 34%; IC50 (Cytochrome P450 2C8): 9.5 µM; fraction unbound [10]: 0.02; fraction unbound [11]: 0.011; IC50 [14]: 0.33 µM; ΔTm [12]: 13 °C
– | – | 0.433 | – | O=C(Nc1ccc(Cl)cn1)C(=O)N1CCC(c2ccnc3ccnn23)CC1 | – | –
– | – | 24 | – | NC(=O)/C(=N/O)Nc1ccc(F)c(Cl)c1 | – | IC50 [13]: 78 µM
– | – | 0.09 | – | O=C(Nc1ccc(Cl)cc1)C(=O)N1CCC(c2ccccc2)CC1 | – | IC50 [13]: > 60 µM; ΔTm [12]: 12 °C
– | – | 14 | – | O=C(/C(=N/O)Nc1ccc(F)c(Cl)c1)N1CCC(c2ccccc2)CC1 | – | IC50 [13]: > 60 µM
14 | < 1 | – | 21 | O=C(Nc1ccc(Cl)cc1)C(=O)N1CCC2(CC1)COc1cc(C(F)(F)F)ccc12 | 86 | –
77 | 40 | 0.245 | – | O=C(Nc1ccc(Cl)cn1)C(=O)N1CCC(c2cccc(Cl)c2Cl)CC1 | – | –
72.9 | 28.8 | 0.023 | 4.5 | CC1(C)CN(C(=O)C(=O)Nc2ccc(Cl)cc2)CCC1c1ccnc2ccc(F)cc12 (racemic) | 71 | –
167 | 20 | 0.03 | 30 | O=C(Nc1ccc(Cl)cc1)C(=O)N1CCC2(CC1)COc1cc(C(F)F)ccc12 | 71 | –
108 | 10 | 0.007 | 6.7 | O=C(Nc1ccc(Cl)cc1F)C(=O)N1CCC(c2ccnc3ccc(F)cc23)CC1 | – | –
